According to ChEMBL document CHEMBL1124434, “2H-[1]benzopyrano[3,4-b]pyridines: synthesis and activity at central monoamine receptors” (J Med Chem, 1989):
pIC50: −log10 of the molar value.

How the values were obtained:
[1] = target: T1, 5-hydroxytryptamine receptor 1B (Rattus norvegicus, UniProt P28564); assay: (§1) Concentration necessary to achieve half maximal inhibition of [125I]- Iodocyanopindolol binding to 5-hydroxytryptamine 1B receptor at 1 uM
[2] = target: T2, Alpha-2A adrenergic receptor (Bos taurus, UniProt Q28838); assay: Concentration necessary to achieve half maximal inhibition of [3H]clonidine binding to alpha-2 adrenergic receptor at 1 uM
T2 sequence (Q28838 whole entry): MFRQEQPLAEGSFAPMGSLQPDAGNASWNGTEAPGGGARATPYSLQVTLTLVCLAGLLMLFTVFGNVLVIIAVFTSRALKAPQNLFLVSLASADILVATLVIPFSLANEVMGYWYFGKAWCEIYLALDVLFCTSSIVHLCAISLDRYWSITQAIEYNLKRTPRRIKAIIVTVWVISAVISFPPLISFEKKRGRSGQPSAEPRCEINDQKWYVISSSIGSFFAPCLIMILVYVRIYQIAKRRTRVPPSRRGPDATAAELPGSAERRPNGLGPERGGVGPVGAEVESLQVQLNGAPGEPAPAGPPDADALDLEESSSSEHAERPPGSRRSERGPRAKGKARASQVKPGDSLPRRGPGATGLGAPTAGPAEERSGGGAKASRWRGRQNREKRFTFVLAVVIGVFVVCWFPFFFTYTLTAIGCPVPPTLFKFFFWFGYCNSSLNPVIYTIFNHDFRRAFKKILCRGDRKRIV

[3] = target: T3, Dopamine receptor (Bos taurus) (UniProt Q95136+P20288); assay: (§2) Concentration necessary to achieve half maximal inhibition of [3H]spiperone binding dopamine receptor at 1 uM; format: protein assay
[4] = target: T3, Dopamine receptor (Bos taurus); assay: (§3) Concentration necessary to achieve half maximal inhibition of [3H](+)-[…]-6,7-dihydroxy-1,2,3,4-tetrahydronaphthalene binding to dopamine receptor at 1 uM; format: protein assay
[5] = target: T4, Serotonin 2 (5-HT2) receptor (Rattus norvegicus, UniProt P30994+P08909+P14842); assay: (§4) Concentration necessary to achieve half maximal inhibition of [3H]ketanserin, binds to 5-hydroxytryptamine 2 receptor at 1 uM; format: protein assay
[6] = target: T5, 5-hydroxytryptamine receptor 1A (Rattus norvegicus, UniProt P19327); assay: (§5) Concentration necessary to achieve half maximal inhibition of [3H]8-Hydroxy-2-(di-n-propylamino)tetralin binding to 5-hydroxytryptamine 1A receptor at 1 uM
T5 sequence (P19327 whole entry): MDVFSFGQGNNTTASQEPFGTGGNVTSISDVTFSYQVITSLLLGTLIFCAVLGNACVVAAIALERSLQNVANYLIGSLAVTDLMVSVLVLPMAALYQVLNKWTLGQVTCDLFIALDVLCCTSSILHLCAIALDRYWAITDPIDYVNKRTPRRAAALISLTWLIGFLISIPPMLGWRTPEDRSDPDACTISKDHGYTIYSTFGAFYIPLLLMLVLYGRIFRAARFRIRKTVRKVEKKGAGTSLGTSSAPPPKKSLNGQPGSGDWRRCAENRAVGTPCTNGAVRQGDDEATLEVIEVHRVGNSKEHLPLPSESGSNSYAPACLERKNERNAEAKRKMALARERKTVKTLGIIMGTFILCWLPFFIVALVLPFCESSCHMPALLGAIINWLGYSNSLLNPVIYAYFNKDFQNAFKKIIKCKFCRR

[7] = target: 5-hydroxytryptamine receptor 1B (Rattus norvegicus) (UniProt P28564); assay: as §1
[8] = target: T4, Serotonin 2 (5-HT2) receptor; assay: (§6) Concentration necessary to achieve half maximal inhibition of [3H]ketanserin binding to 5-hydroxytryptamine 2 receptor at 1 uM; format: protein assay
[9] = target: T6, Alpha-2A adrenergic receptor (Bos taurus) (UniProt Q28838); assay: Concentration necessary to achieve half maximal inhibition of [3H]clonidine binding to alpha-2 adrenergic receptorat 1 uM
T6 sequence (whole entry): T2 sequence (Q28838 whole entry)

[10] = target: T7, Dopamine receptor (Bos taurus, UniProt Q95136+P20288); assay: as §2; format: protein assay
[11] = target: T7, Dopamine receptor; assay: as §3; format: protein assay
[12] = target: T8, 5-hydroxytryptamine receptor 1A (Rattus norvegicus) (UniProt P19327); assay: as §5
T8 sequence (whole entry): T5 sequence (P19327 whole entry)

[13] = target: T9, Serotonin 2 (5-HT2) receptor (Rattus norvegicus) (UniProt P30994+P08909+P14842); assay: as §6; format: protein assay
[14] = target: T9, Serotonin 2 (5-HT2) receptor (Rattus norvegicus); assay: as §4; format: protein assay
[15] = target: T4, Serotonin 2 (5-HT2) receptor; assay: Concentration necessary to achieve half maximal inhibition of [3H]-ketanserin binding to 5-hydroxytryptamine 2 receptor; format: protein assay
[16] = target: T2, Alpha-2A adrenergic receptor
Description: Concentration necessary to achieve half maximal inhibition of [3H]clonidine binding to Alpha-2 adrenergic receptor at 1 uM

[17] = target: T1, 5-hydroxytryptamine receptor 1B; assay: Concentration necessary to achieve half maximal inhibition of [125I]- Iodocyanopindolol, binds to 5-hydroxytryptamine 1B receptor at 1 uM

T9 sequence (P08909 whole entry, looked up): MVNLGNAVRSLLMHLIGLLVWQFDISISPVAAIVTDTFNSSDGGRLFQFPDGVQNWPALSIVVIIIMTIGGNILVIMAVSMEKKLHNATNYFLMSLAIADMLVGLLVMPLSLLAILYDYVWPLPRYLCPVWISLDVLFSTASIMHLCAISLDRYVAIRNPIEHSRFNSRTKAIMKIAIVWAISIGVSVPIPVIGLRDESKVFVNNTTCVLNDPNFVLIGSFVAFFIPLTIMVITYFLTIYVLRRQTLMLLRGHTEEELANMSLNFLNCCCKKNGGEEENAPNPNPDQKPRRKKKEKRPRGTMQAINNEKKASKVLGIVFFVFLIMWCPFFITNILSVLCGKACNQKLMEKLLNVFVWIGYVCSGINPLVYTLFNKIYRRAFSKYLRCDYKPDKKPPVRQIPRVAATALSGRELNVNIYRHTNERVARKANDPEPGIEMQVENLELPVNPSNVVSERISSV
T9 sequence (P14842 whole entry, looked up): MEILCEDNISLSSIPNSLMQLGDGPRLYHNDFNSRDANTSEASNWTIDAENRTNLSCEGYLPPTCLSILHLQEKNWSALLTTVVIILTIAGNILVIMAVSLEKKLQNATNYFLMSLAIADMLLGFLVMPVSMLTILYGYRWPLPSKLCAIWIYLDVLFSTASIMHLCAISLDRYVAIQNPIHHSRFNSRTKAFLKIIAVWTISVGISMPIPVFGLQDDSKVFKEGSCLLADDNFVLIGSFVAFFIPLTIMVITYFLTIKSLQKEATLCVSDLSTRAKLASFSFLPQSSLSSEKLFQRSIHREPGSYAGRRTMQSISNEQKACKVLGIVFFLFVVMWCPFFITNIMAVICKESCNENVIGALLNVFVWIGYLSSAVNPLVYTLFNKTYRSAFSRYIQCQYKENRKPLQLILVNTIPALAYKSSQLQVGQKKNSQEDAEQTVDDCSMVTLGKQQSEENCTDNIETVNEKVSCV
T9 sequence (P30994 whole entry, looked up): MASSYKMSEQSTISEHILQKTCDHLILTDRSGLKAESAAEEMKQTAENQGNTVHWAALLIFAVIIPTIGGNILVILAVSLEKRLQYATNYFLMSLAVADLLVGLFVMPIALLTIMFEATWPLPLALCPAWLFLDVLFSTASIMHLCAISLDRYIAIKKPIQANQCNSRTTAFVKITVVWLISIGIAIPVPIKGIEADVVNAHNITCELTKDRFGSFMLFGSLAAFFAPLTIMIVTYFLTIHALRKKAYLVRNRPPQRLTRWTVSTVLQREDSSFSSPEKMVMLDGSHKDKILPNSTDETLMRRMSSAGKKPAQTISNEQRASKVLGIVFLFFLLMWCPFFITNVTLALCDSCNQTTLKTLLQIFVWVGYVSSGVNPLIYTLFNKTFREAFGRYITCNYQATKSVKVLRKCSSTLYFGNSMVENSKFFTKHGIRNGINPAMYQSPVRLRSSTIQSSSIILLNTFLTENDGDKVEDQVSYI
T1 sequence (P28564 whole entry): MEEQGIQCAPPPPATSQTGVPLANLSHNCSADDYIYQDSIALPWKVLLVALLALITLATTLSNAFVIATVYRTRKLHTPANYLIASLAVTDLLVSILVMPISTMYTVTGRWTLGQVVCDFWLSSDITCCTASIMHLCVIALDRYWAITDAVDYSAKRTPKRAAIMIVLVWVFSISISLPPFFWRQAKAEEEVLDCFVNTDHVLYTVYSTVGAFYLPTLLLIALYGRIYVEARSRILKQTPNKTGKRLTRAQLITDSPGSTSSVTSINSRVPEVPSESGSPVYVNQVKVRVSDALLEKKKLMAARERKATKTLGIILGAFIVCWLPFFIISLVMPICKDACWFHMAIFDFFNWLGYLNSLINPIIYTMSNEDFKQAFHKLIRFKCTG
Chain of 5-hydroxytryptamine receptor 1B (Rattus norvegicus) (P28564 whole entry): as above

SMILES | pIC50 [2] | Change [3] | Change [4] | pIC50 [6] | Change [7] | IC50 [8] | IC50 [10] | IC50 [11] | Change [13] | also measured
FC(F)(F)c1cccc(N2CCNCC2)c1 | – | – | – | – | – | – | – | – | – | pIC50 [1]: 7.29
CCCN1CCC[C@@H]2c3ccccc3OC[C@H]21 | 7.06 | -19% | -24% | 6.66 | -10% | – | – | – | – | IC50 [5]: 178 nM
CCCN1CCC[C@@H]2c3c(O)cccc3OC[C@H]21 | 6.44 | -23% | -12% | 8.40 | -4% | 384 nM | – | – | – | –
COc1cccc2c1OC[C@@H]1[C@@H]2CCCN1C | – | -22% | -23% | 6.60 | – | 920 nM | – | – | – | Change [9]: -24%; inhibition [7]: 7%
CCCN1CCC[C@@H]2c3cccc(O)c3OC[C@H]21 | 7.11 | – | – | 6.00 | -2% | 1100 nM | 260 nM | 30 nM | – | –
CCCN1CCC[C@@H]2c3c(OC)cc(C)cc3OC[C@H]21 | 6.30 | -36% | -15% | 6.73 | -31% | – | – | – | – | IC50 [5]: 86 nM
CCCN1CCC[C@@H]2c3ccc(O)cc3OC[C@H]21 | 6.60 | – | – | – | -1% | – | 4830 nM | 16 nM | -14% | Change [12]: -17%
COc1ccc(C)c2c1OC[C@@H]1[C@@H]2CCCN1C | – | -15% | -6% | 7.72 | -35% | – | – | – | -44% | Change [9]: -12%
COc1cc(C)cc2c1[C@H]1CCCN(C)[C@@H]1CO2 | 6.02 | -39% | -11% | 7.12 | – | 42 nM | – | – | – | pIC50 [1]: 6.08
CCCN1CCC[C@@H]2c3c(OC)cccc3OC[C@H]21 | 7.15 | -53% | -9% | 8.05 | -19% | 114 nM | – | – | – | –
CCCCN1CCC[C@@H]2c3cccc(O)c3OC[C@H]21 | 7.41 | – | – | 5.92 | 0% | – | 260 nM | 8 nM | – | Change [14]: -40%
Cc1ccc(O)c2c1[C@H]1CCCN(C)[C@@H]1CO2 | 5.99 | – | – | 7.12 | -10% | – | 170 nM | 26 nM | – | IC50 [15]: 97 nM
Clc1cccc(Cl)c1N=C1NCCN1 [CLONIDINE] | – | – | – | – | – | – | – | – | – | pIC50 [16]: 8.70
CN(C)CCCSc1ccccc1NC(=O)/C=C/c1ccccc1 [CINANSERIN] | – | – | – | – | – | 2 nM | – | – | – | –
CN1CCC[C@@H]2c3cccc(O)c3OC[C@H]21 | – | -46% | – | – | -2% | 1260 nM | – | 11 nM | – | Change [9]: -41%; Change [12]: -45%
CCCN1CCC=C2c3cc(O)ccc3OCC21 (stereo unspecified) | 6.20 | – | – | 6.61 | 0% | – | 4190 nM | 51 nM | -14% | –
CN1CCC[C@@H]2c3cc(O)ccc3OC[C@H]21 | – | – | – | – | 6% | – | 4080 nM | 114 nM | -27% | Change [9]: -64%; Change [12]: -13%
CCCN1CCC=C2c3c(OC)cccc3OCC21 (stereo unspecified) | 6.82 | -36% | -13% | 8.74 | – | – | – | – | – | pIC50 [17]: 5.88; IC50 [5]: 839 nM
CN1CCC=C2c3cc(O)ccc3OCC21 (stereo unspecified) | – | – | – | – | -6% | – | – | 20 nM | -32% | inhibition [3]: 3%; Change [12]: -42%
CCCN1CCC[C@@H]2c3cc(O)ccc3OC[C@H]21 | 6.25 | – | – | 5.92 | -1% | – | 1260 nM | 9 nM | -30% | –
CCCN1CCC=C2c3ccccc3OCC21 (stereo unspecified) | 6.68 | -13% | -15% | 7.13 | -11% | – | – | – | -22% | –
CCCN1CCC=C2c3cccc(O)c3OCC21 (stereo unspecified) | – | -17% | -10% | – | -1% | – | – | – | -14% | Change [9]: -34%; Change [12]: -36%
